Source: publication PMC12040169 (PLOS Biology, 2025)

Test: in vitro
Conditions: human, hela cells, % viability

Compound	viability at 28.5 h, 10 µM
Cc1ccc(NC(=O)N(CCC#N)C2CCCCC2)cc1 [CBK156381]	106%
CC(NC(=O)N(CCC#N)C1CCCCC1)c1ccccc1 (stereo not drawn) [CBK156382]	97.2%
N#CCCN(C(=O)NC1CCc2ccccc21)C1CCCCC1 (stereo not drawn) [CBK156383]	95.5%
CN1CCN(CCCNC(=O)N2CCN(c3ccc(F)cc3)CC2)CC1 [CBK156386]	91.2%
O=C(NCC1COc2ccccc2O1)N1CCN(c2ccc(F)cc2)CC1 (stereo not drawn) [CBK156387]	92.8%
O=C(NCC1CCCCC1)N1CCN(c2ccc(F)cc2)CC1 [CBK156397]	86.9%
O=C(NCC(c1ccccc1)c1ccccc1)N1CCN(c2ccc(F)cc2)CC1 [CBK156415]	97%
O=C(NCCOc1ccccc1)N1CCN(c2ccc(F)cc2)CC1 [CBK156416]	92.7%
CCN(CC)CCCNC(=O)N1CCN(c2ccc(F)cc2)CC1 [CBK156419]	88.6%
CSCCCNC(=O)N1CCN(c2cc(C(F)(F)F)ccn2)CC1 [CBK156433]	92.3%
O=C(NCc1cccc(C(F)(F)F)c1)N1CCN(c2cc(C(F)(F)F)ccn2)CC1 [CBK156435]	102%
COCC(=O)N1CCC2(CC1)CC(=O)c1cc(Cl)cc(Cl)c1O2 [CBK156440]	84.1%
O=C1CC2(CCN(C(=O)c3ccccn3)CC2)Oc2ccc(Br)cc21 [CBK156443]	93.7%
CC(=O)NCC(=O)N1CCC2(CC1)CC(=O)c1cc(Br)ccc1O2 [CBK156447]	106%
COc1ccc2c(c1)OC1(CCN(C(=O)c3ccc(C(C)=O)cc3)CC1)CC2=O [CBK156457]	94.2%
O=C1NCC(C(=O)N2CCC3(CC2)CC(=O)c2cc(Br)ccc2O3)N1 (stereo not drawn) [CBK156475]	87.7%
O=C1NC(=O)C(CC(=O)N2CCC3(CC2)CC(=O)c2cc(Cl)ccc2O3)N1 (stereo not drawn) [CBK156485]	107%

Compound	viability at 28.5 h, 10 µM
CCCCC(=O)N1CCC2(CC1)CC(=O)c1ccc(OCc3ccccc3)c(C)c1O2 [CBK156493]	104%
Cc1cnc(C(=O)N2CCC3(CC2)CC(=O)c2cc(Cl)cc(Cl)c2O3)cn1 [CBK156502]	89.7%
Cc1noc(C)c1C(=O)N1CCC2(CC1)CC(=O)c1ccc(OCc3ccccc3)c(C)c1O2 [CBK156506]	97.4%
O=C1CC2(CCN(C(=O)C3CCOC3)CC2)Oc2c(Br)cc(Br)cc21 (stereo not drawn) [CBK156512]	96.4%
CC(OC(=O)c1ccc2c(c1)C(=O)N(c1ccc(Cl)cc1)C2=O)C(=O)c1ccccc1 (stereo not drawn) [CBK156661]	111%
COc1ccccc1OCC(=O)N1CCC2(CCNC2)C1 (stereo not drawn) [CBK156703C]	99.6%
O=C(c1ccc2[nH]c(=O)[nH]c2c1)N1CCC2(CCNC2)C1 (stereo not drawn) [CBK156747C]	101%
CCCCCCOC(=O)c1ccc2c(c1)C(=O)N(c1cccc(N)c1)C2=O [CBK157034]	106%
O=C(Nc1ncc(-c2ccccc2)s1)c1cccc([N+](=O)[O-])c1 [CBK157055]	92.7%
CC(OC(=O)c1ccc2c(c1)C(=O)N(c1ccc([N+](=O)[O-])cc1)C2=O)C(=O)c1ccccc1 (stereo not drawn) [CBK157061]	94.3%
COc1cccc(C(=O)N2CCN(S(=O)(=O)c3ccc([N+](=O)[O-])cc3)CC2)c1 [CBK157533]	96.9%
O=[N+]([O-])c1ccc(N2CCN(S(=O)(=O)c3ccc4ccccc4c3)CC2)cc1 [CBK157773]	93.6%
CN1CCN(CCCNC(=O)c2ccc(-c3ccc(C(=O)N(C)C)cc3)nc2)CC1 [CBK158343]	95%
CC1CCN(Cc2ccc(-c3ccc(CC(=O)NCCc4ccc(O)cc4)cn3)cc2)CC1 [CBK158384]	91.9%
CC1CCN(Cc2ccc(-c3ccc(CC(=O)NCc4ccc(C#N)cc4)cn3)cc2)CC1 [CBK158409]	93.8%
O=C(c1ccc(-c2cncc(-c3cc4ccccc4[nH]3)c2)cc1)N1CCOCC1 [CBK158419T]	76.1%
